Results published in patent US8178091B2, “Compositions and methods for the treatment of respiratory disorders” (University of Washington, priority 2007, dated 2012).
“Also recorded” adds a separate entry of the source.

Experiments:
[1] = test system: IGF-1R; conditions: murine and human tissues; cited from earlier work
[2] = target: insulin receptor (IR) (Homo sapiens, UniProt P06213); conditions: cited from earlier work
[3] = test system: primary mouse lung fibroblasts; assay: apoptosis assay (Cell Death Detection ELISA-plus), mouse lung fibroblasts; format: cell-based, C57BL6 mice; conditions: serum-starved, 24 hours
Description: A. Quantification of TUNEL IHC by number of TUNEL positive cells/total # of cells. Average ±SD of two mice/condition and at least 500 cells analyzed per condition. […] Mouse lung fibroblasts were serum starved overnight and then incubated with indicated concentration of IGF-1R antibody, A12. Apoptosis was measured by Cell Death ELISA-plus (Roche Applied Science). All experiments were done in triplicate and repeated at least twice. Apoptosis index is defined as ratio of experimental condition OD405nm/control (media alone) OD405nm. The data was analyzed using one-way ANOVA with Tukey's HSD post hoc test, and statistical significance (*) was determined at p<0.05.
For apoptosis assays, primary mouse lung fibroblasts were plated in 96-well plates (20,000 cells/well) overnight and serum-starved for 24 hours. Functional blocking antibody to the type 1 IGF receptor (A12) was added to media at indicated concentration for 24 hours. At the end of the experiment, plates were centrifuged at 200×g for 10 minutes to prevent detached cells from being aspirated, and apoptosis was measured using the Cell Death Detection ELISA-plus System (Roche Applied Science, Penzberg, Germany), which detects cytosolic histone-complexed DNA fragments. All experiments were done in triplicate and repeated at least twice. Apoptosis index was defined as ratio of experimental condition OD405nm/control (media alone) OD405nm.

[4] = format: in vivo, mice; conditions: absence of bleomycin, not shown
Excerpt: In the saline control group, most deaths occurred between 7 and 10 days, as expected in this model. […] In the absence of bleomycin, administration of A12 alone had no affect on survival, lung histology, BAL protein concentration or cell count (not shown).

[5] = test system: lung cells (TUNEL positive); assay: TUNEL assay on lung sections after bleomycin; format: in vivo, mice
Description: For TUNEL assay, tissue sections were deparaffinized using standard protocols and permeabilised with proteinase K (10 μg/ml in 10 mM Tris-HCl) for 30 mins at 37° C. Non-specific binding sites were blocked with 1 mg/ml BSA in 50 mM Tris-HCl for 10 mins at 37° C. TUNEL positive cells were detected with Fluorescein In Situ Cell Death Detection Kit (Roche). Nuclei were counterstained with DAPI. To quantitate apoptosis, at least 2 mice per timepoint were examined and a blinded observer counted number of TUNEL positive cells and DAPI positive cells in 4 independent fields/mouse. At least 500 cells were analyzed per condition.

[6] = target: T1, IGF-1R (Mus musculus, UniProt Q60751); assay: IGF-1R expression in tissues after systemic A12 (IHC, Western blot); format: in vivo, mice
T1 construct: Western blot analysis for IGF-1R on lungs and spleen lysates at day 14 post-bleomycin; from tissue; host or cells: mouse lung, spleen, kidney
Description: ICR male mice are anesthetized under pentobarbital (60 mg/kg, i.v.) anesthesia, the cervical region is shaved and the skin is incised for about 4 mm from under the larynx region along the median line. Next, the muscle layer covering upper trachea is peeled off to expose the trachea. Using a micro-syringe, physiological saline or bleomycin hydrochloride (0.03 mg/animal, manufactured by Nippon Kayaku) is administered tracheally (50 μl/animal) from the tracheal smooth muscle region between cricoid cartilage. After the administration, the incised region is closed and antibiotics are administered into the thigh intramuscularly in order to prevent infection. IGF-1R inhibitor, e.g., antibody to IGF-1 receptor (A12). The A12 antibody was administered intraperitoneally at the time of bleomycin administration and subsequently 2-3× per week at a dose of 40 mg/kg (initial experiments involved dosing 3× per week, and later experiments dosed 2× per week; results were the same). […] Controls included bleomycin-treated animals receiving saline injection in place of A12 antibody. […] Lung hydroxyproline content is measured as a measure of fibrosis. Changes in lung tissue histology are also monitored. […] Bronchoalveolar lavage fluid (BALF) total cell count was determined by trypan blue exclusion and cell differential was determined on Diff quick (Dade Behring Ag, Düdingen, Switzerland) stained cytospins. […]

T1 sequence (Q60751 31-1373): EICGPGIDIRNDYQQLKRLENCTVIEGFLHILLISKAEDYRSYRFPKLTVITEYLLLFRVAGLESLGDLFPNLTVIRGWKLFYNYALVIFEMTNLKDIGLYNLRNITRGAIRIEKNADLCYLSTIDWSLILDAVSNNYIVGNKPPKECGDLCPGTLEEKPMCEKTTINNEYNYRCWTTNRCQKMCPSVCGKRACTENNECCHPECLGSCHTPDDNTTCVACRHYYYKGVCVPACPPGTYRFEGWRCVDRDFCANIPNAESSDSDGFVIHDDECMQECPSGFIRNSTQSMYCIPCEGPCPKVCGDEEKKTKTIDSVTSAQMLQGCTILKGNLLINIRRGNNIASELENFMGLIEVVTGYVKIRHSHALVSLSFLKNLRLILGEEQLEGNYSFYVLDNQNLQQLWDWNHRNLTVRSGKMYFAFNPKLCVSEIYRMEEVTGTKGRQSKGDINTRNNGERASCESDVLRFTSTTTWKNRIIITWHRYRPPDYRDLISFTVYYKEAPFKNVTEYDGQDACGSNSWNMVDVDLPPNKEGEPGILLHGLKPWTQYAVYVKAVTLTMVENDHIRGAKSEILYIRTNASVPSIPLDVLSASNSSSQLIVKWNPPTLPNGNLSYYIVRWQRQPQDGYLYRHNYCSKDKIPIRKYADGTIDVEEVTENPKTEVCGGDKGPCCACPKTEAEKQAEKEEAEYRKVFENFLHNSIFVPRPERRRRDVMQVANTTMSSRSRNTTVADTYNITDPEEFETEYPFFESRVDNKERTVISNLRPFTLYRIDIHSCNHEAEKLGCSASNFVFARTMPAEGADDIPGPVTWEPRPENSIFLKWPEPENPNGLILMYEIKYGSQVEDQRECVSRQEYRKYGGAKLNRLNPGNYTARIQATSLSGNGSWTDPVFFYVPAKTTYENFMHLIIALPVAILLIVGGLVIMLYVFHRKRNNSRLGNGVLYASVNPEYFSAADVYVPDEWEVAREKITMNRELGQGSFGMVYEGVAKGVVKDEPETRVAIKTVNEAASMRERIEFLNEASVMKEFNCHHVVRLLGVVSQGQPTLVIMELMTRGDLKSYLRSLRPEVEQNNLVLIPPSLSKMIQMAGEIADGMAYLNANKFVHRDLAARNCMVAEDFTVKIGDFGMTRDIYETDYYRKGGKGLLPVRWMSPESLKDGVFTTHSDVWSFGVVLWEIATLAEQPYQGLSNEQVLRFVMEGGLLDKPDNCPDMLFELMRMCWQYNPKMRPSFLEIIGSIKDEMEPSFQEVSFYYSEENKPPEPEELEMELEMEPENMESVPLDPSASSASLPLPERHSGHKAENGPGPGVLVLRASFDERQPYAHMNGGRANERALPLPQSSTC

## A12: Function blocking antibody to the human type 1 IGF receptor, gift from ImClone Systems
[1]
  IGF-1R signaling: inhibits IGF-1R signaling
[2]
  cross-reaction with insulin receptor: does not cross-react
[3]
  apoptosis of primary mouse lung fibroblasts: dose-dependent increase in apoptosis; also recorded: Increased apoptosis
[3]; listed as IGF-1R antibody
  apoptosis of primary mouse lung fibroblasts: increased apoptosis
[4]
  survival, lung histology, BAL protein concentration or cell count: had no affect
[5]; d14, vs vehicle
  TUNEL-positive (apoptotic) cells in lung: increase in TUNEL-positive cells
[5]; day 28, vs vehicle
  TUNEL-positive (apoptotic) cells in lung: fewer apoptotic cells
[6]; day 7 post-bleomycin, vs saline
  IGF-1R expression in lungs: marked decrease in IGF-1R expression; also recorded: decreased IGF-1R expression
[6]; systemic effect of antibody
  IGF-1R in the kidney (Western blotting): down-regulation of IGF-1R in the kidney
